System: 699152-130-R-J1-PDC complex spheroid viability
Experiment: Anticancer human tumor 699152-130-R-J1-PDC patient-derived pancreatic carcinoma cell line growth inhibition [POLQ]
Details: for IC50: curve of first compound; for viability, T/C: stronger effect = lower value
Procedure, shortened: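 PDC + HUVEC + MSC complex spheroids; POLQ inhibitors ± partner drugs; top conc. at/near clinical Cmax, else 10 microM (SN-38 1 microM), half-log dilutions; 37 degrees C, 5% CO2.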

[1] = second compound 0.0316 µM, first compound 0.0316 µM
[2] = second compound 0.0316 µM, first compound 0.1 µM
[3] = second compound 0.0316 µM, first compound 0.316 µM
[4] = second compound 0.0316 µM, first compound 1 µM
[5] = second compound 0.0316 µM, first compound 3.16 µM
[6] = second compound 0.0316 µM, first compound 10 µM
[7] = second compound 0.1 µM, first compound 0.0316 µM
[8] = second compound 0.1 µM, first compound 0.1 µM
[9] = second compound 0.1 µM, first compound 0.316 µM
[10] = second compound 0.1 µM, first compound 1 µM
[11] = second compound 0.1 µM, first compound 3.16 µM
[12] = second compound 0.1 µM, first compound 10 µM
[13] = second compound 0.316 µM, first compound 0.0316 µM
[14] = second compound 0.316 µM, first compound 0.1 µM
[15] = second compound 0.316 µM, first compound 0.316 µM
[16] = second compound 0.316 µM, first compound 1 µM
[17] = second compound 0.316 µM, first compound 3.16 µM
[18] = second compound 0.316 µM, first compound 10 µM
[19] = second compound 1 µM, first compound 0.0316 µM
[20] = second compound 1 µM, first compound 0.1 µM
[21] = second compound 1 µM, first compound 0.316 µM
[22] = second compound 1 µM, first compound 1 µM
[23] = second compound 1 µM, first compound 3.16 µM
[24] = second compound 1 µM, first compound 10 µM
[25] = second compound 3.16 µM, first compound 0.0316 µM
[26] = second compound 3.16 µM, first compound 0.1 µM
[27] = second compound 3.16 µM, first compound 0.316 µM
[28] = second compound 3.16 µM, first compound 1 µM
[29] = second compound 3.16 µM, first compound 3.16 µM
[30] = second compound 3.16 µM, first compound 10 µM
[31] = second compound 10 µM, first compound 0.0316 µM
[32] = second compound 10 µM, first compound 0.1 µM
[33] = second compound 10 µM, first compound 0.316 µM
[34] = second compound 10 µM, first compound 1 µM
[35] = second compound 10 µM, first compound 3.16 µM
[36] = second compound 10 µM, first compound 10 µM
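Further: spheroids exposed to agents for 7 days before viability reading.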
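Wherever viability, T/C is given: percent of DMSO vehicle control viability so 100% = vehicle and 0% = no viable signal.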

## CCc1cc2c(N3CCc4c(cc(Cn5ccnc5)cc4-c4cn(C)nc4C(F)(F)F)C3=O)ccnc2c(OC)n1 + Cc1cccc(N(C)C(=O)C2C(O)CCN2c2nc(C)cc(C(F)(F)F)c2C#N)c1
Second compound 0.0316 µM
  IC50: > 10 µM
Second compound 0.1 µM
  IC50: > 10 µM
Second compound 0.316 µM
  IC50: > 10 µM
Second compound 1 µM
  IC50: > 10 µM
Second compound 3.16 µM
  IC50: > 10 µM
Second compound 10 µM
  IC50: > 10 µM
[1]
  viability, T/C: 80%
[2]
  viability, T/C: 90.4%
[3]
  viability, T/C: 105%
[4]
  viability, T/C: 114%
[5]
  viability, T/C: 103%
[6]
  viability, T/C: 95%
[7]
  viability, T/C: 75.8%
[8]
  viability, T/C: 89.3%
[9]
  viability, T/C: 88.1%
[10]
  viability, T/C: 94.2%
[11]
  viability, T/C: 97.3%
[12]
  viability, T/C: 94.9%
[13]
  viability, T/C: 86.7%
[14]
  viability, T/C: 101%
[15]
  viability, T/C: 91.5%
[16]
  viability, T/C: 102%
[17]
  viability, T/C: 103%
[18]
  viability, T/C: 93.6%
[19]
  viability, T/C: 101%
[20]
  viability, T/C: 93%
[21]
  viability, T/C: 98.7%
[22]
  viability, T/C: 86.8%
[23]
  viability, T/C: 105%
[24]
  viability, T/C: 91.7%
[25]
  viability, T/C: 99.2%
[26]
  viability, T/C: 94.5%
[27]
  viability, T/C: 98.4%
[28]
  viability, T/C: 95.1%
[29]
  viability, T/C: 90.9%
[30]
  viability, T/C: 99.8%
[31]
  viability, T/C: 85.6%
[32]
  viability, T/C: 93.1%
[33]
  viability, T/C: 92.5%
[34]
  viability, T/C: 94.7%
[35]
  viability, T/C: 95.1%
[36]
  viability, T/C: 95.5%

## COc1cccc(OCCCN)c1-c1cc(Nc2cnc(C#N)cn2)n[nH]1 + Cc1cccc(N(C)C(=O)C2C(O)CCN2c2nc(C)cc(C(F)(F)F)c2C#N)c1
Second compound 0.0316 µM
  IC50: > 1 µM
Second compound 0.1 µM
  IC50: > 1 µM
Second compound 0.316 µM
  IC50: > 1 µM
Second compound 1 µM
  IC50: > 1 µM
Second compound 3.16 µM
  IC50: > 1 µM
Second compound 10 µM
  IC50: > 1 µM
Second compound 0.0316 µM, first compound 0.00316 µM
  viability, T/C: 93%
Second compound 0.0316 µM, first compound 0.01 µM
  viability, T/C: 75.7%
[1]
  viability, T/C: 64.7%
[2]
  viability, T/C: 63.1%
[3]
  viability, T/C: 50.8%
[4]
  viability, T/C: 51.2%
Second compound 0.1 µM, first compound 0.00316 µM
  viability, T/C: 89.4%
Second compound 0.1 µM, first compound 0.01 µM
  viability, T/C: 85.7%
[7]
  viability, T/C: 67.4%
[8]
  viability, T/C: 58.1%
[9]
  viability, T/C: 55.5%
[10]
  viability, T/C: 49.1%
Second compound 0.316 µM, first compound 0.00316 µM
  viability, T/C: 100%
Second compound 0.316 µM, first compound 0.01 µM
  viability, T/C: 91.3%
[13]
  viability, T/C: 61.5%
[14]
  viability, T/C: 59.6%
[15]
  viability, T/C: 54.5%
[16]
  viability, T/C: 46.7%
Second compound 1 µM, first compound 0.00316 µM
  viability, T/C: 92.8%
Second compound 1 µM, first compound 0.01 µM
  viability, T/C: 90.7%
[19]
  viability, T/C: 61.2%
[20]
  viability, T/C: 54.1%
[21]
  viability, T/C: 52.8%
[22]
  viability, T/C: 48.7%
Second compound 3.16 µM, first compound 0.00316 µM
  viability, T/C: 86.3%
Second compound 3.16 µM, first compound 0.01 µM
  viability, T/C: 86.4%
[25]
  viability, T/C: 67.2%
[26]
  viability, T/C: 56.3%
[27]
  viability, T/C: 51.2%
[28]
  viability, T/C: 57.3%
Second compound 10 µM, first compound 0.00316 µM
  viability, T/C: 98.1%
Second compound 10 µM, first compound 0.01 µM
  viability, T/C: 88%
[31]
  viability, T/C: 61.6%
[32]
  viability, T/C: 59%
[33]
  viability, T/C: 58.4%
[34]
  viability, T/C: 56.1%

## COc1cc2cc(C(=O)CCC(=O)O)sc2cc1OC + COC1C(OC(N)=O)C(O)C(Oc2ccc3c(O)c(NC(=O)c4ccc(O)c(CC=C(C)C)c4)c(=O)oc3c2C)OC1(C)C
Second compound 0.0316 µM
  IC50: > 10 µM
Second compound 0.1 µM
  IC50: > 10 µM
Second compound 0.316 µM
  IC50: > 10 µM
Second compound 1 µM
  IC50: > 10 µM
Second compound 3.16 µM
  IC50: > 10 µM
Second compound 10 µM
  IC50: > 10 µM
[1]
  viability, T/C: 104%
[2]
  viability, T/C: 113%
[3]
  viability, T/C: 97.1%
[4]
  viability, T/C: 95.8%
[5]
  viability, T/C: 106%
[6]
  viability, T/C: 103%
[7]
  viability, T/C: 91.2%
[8]
  viability, T/C: 109%
[9]
  viability, T/C: 94.3%
[10]
  viability, T/C: 93.7%
[11]
  viability, T/C: 103%
[12]
  viability, T/C: 97.5%
[13]
  viability, T/C: 107%
[14]
  viability, T/C: 110%
[15]
  viability, T/C: 105%
[16]
  viability, T/C: 108%
[17]
  viability, T/C: 101%
[18]
  viability, T/C: 95.8%
[19]
  viability, T/C: 110%
[20]
  viability, T/C: 105%
[21]
  viability, T/C: 93%
[22]
  viability, T/C: 102%
[23]
  viability, T/C: 98.6%
[24]
  viability, T/C: 103%
[25]
  viability, T/C: 110%
[26]
  viability, T/C: 98.6%
[27]
  viability, T/C: 107%
[28]
  viability, T/C: 92.4%
[29]
  viability, T/C: 109%
[30]
  viability, T/C: 102%
[31]
  viability, T/C: 113%
[32]
  viability, T/C: 100%
[33]
  viability, T/C: 120%
[34]
  viability, T/C: 107%
[35]
  viability, T/C: 98.8%
[36]
  viability, T/C: 106%
